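1) Cells in 96-well plates. 2) Compound, 48 h, 5 concentrations. 3) Linear interpolation between surrounding doses. 4) Unreached endpoint = highest concentration. GI50: concentration for 50% inhibition of growth.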 Active and inactive are the calls of the source. Cut-off read from the data, not from the text of the source: active = GI50 up to about 1.1 µM and inactive = higher.
How the values were obtained:
Experiment in all cases: NCI anticancer screen, dose series, 48 h
MDA-MB-231 = system: MDA-MB-231
MDA-MB-435 = system: MDA-MB-435
OVCAR-8 = system: OVCAR-8
EKVX = system: EKVX
RPMI-8226 = system: RPMI-8226
PC-3 = system: PC-3
HL-60 = system: HL-60
MDA-N = system: MDA-N
A549 = system: A549
OVCAR-4 = system: OVCAR-4
HOP-92 = system: HOP-92
DU-145 = system: DU-145
T47D = system: T47D
SR = system: SR
IGROV-1 = system: IGROV-1
NCI-H226 = system: NCI-H226
RXF 393 = system: RXF 393
SF-268 = system: SF-268
DLD-1 = system: DLD-1
UACC-257 = system: UACC-257

| SMILES | GI50 (MDA-MB-231) | GI50 (MDA-MB-435) | GI50 (OVCAR-8) | GI50 (EKVX) | GI50 (RPMI-8226) | GI50 (PC-3) | GI50 (HL-60) | GI50 (MDA-N) | GI50 (A549) | GI50 (OVCAR-4) | GI50 (HOP-92) | GI50 (DU-145) | GI50 (T47D) | GI50 (SR) | GI50 (IGROV-1) | GI50 (NCI-H226) | GI50 (RXF 393) | GI50 (SF-268) | GI50 (DLD-1) | GI50 (UACC-257) |
| --- | --- | --- | --- | --- | --- | --- | --- | --- | --- | --- | --- | --- | --- | --- | --- | --- | --- | --- | --- | --- |
| CC1=Nc2c(O)nc(S)nc2NC(c2c(Cl)cccc2Cl)C1 (centres undefined) | 0.519 µM (active) | 1.49 µM (inactive) | 0.877 µM (active) | 7.18 µM (inactive) | 0.583 µM (active) | 1.17 µM (inactive) | 0.552 µM (active) | 0.552 µM (active) | 3.43 µM (inactive) | 2.74 µM (inactive) | 9.31 µM (inactive) | 1.95 µM (inactive) | 1.48 µM (inactive) | 0.372 µM (active) | 2.36 µM (inactive) | 5.21 µM (inactive) | 5.26 µM (inactive) | 1.57 µM (inactive) | 2.42 µM (inactive) | 3.07 µM (inactive) |
| Cc1ccc(S(=O)(=O)SC(C)(C)C)cc1 | 24.7 µM (inactive) | 31.4 µM (inactive) | 21.3 µM (inactive) | > 45.8 µM (inactive) | 15.3 µM (inactive) | > 10 µM (inactive) | 18 µM (inactive) | > 10 µM (inactive) | > 100 µM (inactive) | 22.2 µM (inactive) | 63 µM (inactive) | > 100 µM (inactive) | > 100 µM (inactive) | 12.2 µM (inactive) | 18.9 µM (inactive) | > 86.7 µM (inactive) |  | 45.5 µM (inactive) | 18.5 µM (inactive) | 21.6 µM (inactive) |
